Here are results for 17 compounds from patent US8263598B2, “Substituted sulfonamide compounds” (Gruenenthal GmbH, priority 2008, dated 2012).

Assay [1] addresses T1, human B1R receptor (hB1R) (Homo sapiens, UniProt P46663).
T1 construct: host or cells: CHO K1 cells
T1 sequence (P46663 1-353): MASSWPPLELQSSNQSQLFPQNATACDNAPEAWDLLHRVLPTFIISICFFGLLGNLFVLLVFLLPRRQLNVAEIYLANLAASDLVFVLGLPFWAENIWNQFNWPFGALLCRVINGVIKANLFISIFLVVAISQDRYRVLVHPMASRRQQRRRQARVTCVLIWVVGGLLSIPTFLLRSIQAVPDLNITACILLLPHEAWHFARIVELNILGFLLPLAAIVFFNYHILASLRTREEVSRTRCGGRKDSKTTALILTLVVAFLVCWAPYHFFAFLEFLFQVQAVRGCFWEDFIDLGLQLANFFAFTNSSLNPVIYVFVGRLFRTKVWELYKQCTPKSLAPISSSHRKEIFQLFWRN
Briefly: FLIPR Ca2+ assay on human bradykinin 1 receptor (CHO K1 hB1R cells). Format: cell-based. Particulars: test substance 10 μM; CHO K1 cells with human B1R gene; agonist Lys-Des-Arg9-bradykinin 0.5 nM; compared to maximum achievable inhibition. The essentials:
(§1)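 CHO K1 cells stably expressing human or rat B1R were loaded with Fluo-4 and tested at 10 μM compound. Ca²⁺ signal was read in FLIPR as % activation versus agonist. After 10 min, agonist was added (hB1R: Lys-Des-Arg9-bradykinin 0.5 nM; rB1R: Des-Arg9-bradykinin 100 nM), and % inhibition was taken relative to maximum achievable inhibition.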

Assay [2] addresses T2, B1R receptor of rats (rB1R) (Rattus norvegicus, UniProt P97583).
T2 construct: host or cells: CHO K1 cells
T2 sequence (P97583 1-337): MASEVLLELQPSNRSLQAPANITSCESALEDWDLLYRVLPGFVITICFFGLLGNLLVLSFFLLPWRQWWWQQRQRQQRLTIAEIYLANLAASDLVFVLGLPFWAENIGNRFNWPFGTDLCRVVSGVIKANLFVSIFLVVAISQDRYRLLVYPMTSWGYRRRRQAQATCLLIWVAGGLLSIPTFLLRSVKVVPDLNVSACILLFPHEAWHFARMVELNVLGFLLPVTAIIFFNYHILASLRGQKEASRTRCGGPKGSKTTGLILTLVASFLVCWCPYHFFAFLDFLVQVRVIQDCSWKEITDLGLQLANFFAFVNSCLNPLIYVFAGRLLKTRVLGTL
Briefly: FLIPR Ca2+ assay on rat bradykinin 1 receptor (CHO K1 rB1R cells). In kind it is cell-based. The conditions noted are these: test substance 10 μM; CHO K1 cells with B1R gene of rats; agonist Des-Arg9-bradykinin 100 nM; compared to maximum achievable inhibition. Put shortly:
as §1

For `Cc1cc(C)c(S(=O)(=O)N(C)CCOCC(=O)N2CCn3c(CN4CCOCC4)ccc3C2c2ccccc2)c(C)c1` (stereo not shown) [Example 142, N,2,4,6-tetramethyl-N-(2-(2-(6-(morpholinomethyl)-1-phenyl-3,4-dihydro-pyrrolo[1,2-a]pyrazin-2(1H)-yl)-2-oxoethoxy)ethyl)benzenesulfonamide], the inhibition at 10 µM in assay [1] is 103%; in assay [2] it was 101%.
Taken in the same sequence, the figures for `COc1cc(C)c(S(=O)(=O)N(C)CCOCC(=O)N2CCn3c(CN4CCOCC4)ccc3C2c2ccccc2)c(C)c1C` (stereo not shown) [Example 150, 4-methoxy-N,2,3,6-tetramethyl-N-(2-(2-(6-(morpholinomethyl)-1-phenyl-3,4-dihydropyrrolo[1,2-a]pyrazin-2(1H)-yl)-2-oxoethoxy)ethyl)benzenesulfonamide] were 103% and 103%.
Taken in the same sequence, the figures for `COc1cc(C)c(S(=O)(=O)N(C)CCOCC(=O)N2CCn3cccc3C2C(C)C)c(C)c1C` (stereo not shown) [Example 153, N-(2-(2-(1-isopropyl-3,4-dihydropyrrolo[1,2-a]pyrazin-2(1H)-yl)-2-oxoethoxy)ethyl)-4-methoxy-N,2,3,6-tetramethylbenzenesulfonamide] were 103% and 103%.
For `COc1cc(C)c(S(=O)(=O)N(C)CCOCC(=O)N2CCn3cccc3C2c2cccc(C(F)(F)F)c2)c(C)c1` (stereo not shown) [Example 61, 4-methoxy-N,2,6-trimethyl-N-(2-(2-oxo-2-(1-(3-(trifluoromethyl)phenyl)-3,4-dihydropyrrolo[1,2-a]pyrazin-2(1H)-yl)ethoxy)ethyl)benzenesulfonamide], in that order: 100% and 99%.
`CCCCC1c2ccc(CN(C)C)n2CCN1C(=O)COCCN(CC(C)C)S(=O)(=O)c1c(C)cc(OC)c(C)c1C` (stereo not shown) [Example 97, N-(2-(2-(1-butyl-6-((dimethylamino)methyl)-3,4-dihydropyrrolo[1,2-a]pyrazin-2(1H)-yl)-2-oxoethoxy)ethyl)-N-isobutyl-4-methoxy-2,3,6-trimethylbenzene-sulfonamide]: the inhibition at 10 µM in assay [1] was 89%; in assay [2], 102%.
Taken in the same sequence, the figures for `COc1cccc(C2c3cccn3CCN2C(=O)COCCN(C)S(=O)(=O)c2c(C)cc(OC)cc2C)c1` (stereo not shown) [Example 62, 4-methoxy-N-(2-(2-(1-(3-methoxyphenyl)-3,4-dihydropyrrolo[1,2-a]pyrazin-2(1H)-yl)-2-oxoethoxy)ethyl)-N,2,6-trimethylbenzenesulfonamide] were 101% and 98%.
Taken in the same sequence, the figures for `COc1cc(C)c(S(=O)(=O)N(C)CCOCC(=O)N2CCn3cccc3C2c2ccc(F)c(F)c2)c(C)c1C` (stereo not shown) [Example 85, N-(2-(2-(1-(3,4-difluorophenyl)-3,4-dihydropyrrolo[1,2-a]pyrazin-2(1H)-yl)-2-oxoethoxy)ethyl)-4-methoxy-N,2,3,6-tetramethylbenzenesulfonamide] were 99% and 92%.
For `COc1cc(C)c(S(=O)(=O)N(C)CCOCC(=O)N2CCn3c(CN(C)C)ccc3C2c2ccccc2)c(C)c1C` (stereo not shown) [Example 1, N-(2-(2-(6-((dimethylamino)methyl)-1-phenyl-3,4-dihydropyrrolo[1,2-a]pyrazin-2(1H)-yl)-2-oxoethoxy)ethyl)-4-methoxy-N,2,3,6-tetramethylbenzene-sulfonamide], in that order: 89% and 58%.
As to `COc1c(C)cc(S(=O)(=O)N(C)CCOCC(=O)N2CCn3cccc3C2c2cccs2)c(C)c1C` (stereo not shown) [Example 36, 4-methoxy-N,2,3,5-tetramethyl-N-(2-(2-oxo-2-(1-(thiophen-2-yl)-3,4-dihydropyrrolo[1,2-a]pyrazin-2(1H)-yl)ethoxy)ethyl)benzenesulfonamide], the inhibition at 10 µM is 97% in assay [1] and 85% in assay [2].
Taken in the same sequence, the figures for `O=C(CC(NS(=O)(=O)c1ccc2ccccc2c1)c1ccccc1)N1CCn2c(CCc3ccncc3)ccc2C1` (stereo not shown) [Example 173, N-(3-Oxo-1-phenyl-3-(6-(2-(pyridin-4-yl)ethyl)-3,4-dihydropyrrolo[1,2-a]pyrazin-2(1H)-yl)propyl)naphthalene-2-sulfonamide] were 20% and 75%.
For `COc1cc(C)c(S(=O)(=O)N(CCOCC(=O)N2CCn3c(C)ccc3C2C(C)C)CC(C)C)c(C)c1C` (stereo not shown) [Example 104, N-isobutyl-N-(2-(2-(1-isopropyl-6-methyl-3,4-dihydropyrrolo[1,2-a]pyrazin-2(1H)-yl)-2-oxoethoxy)ethyl)-4-methoxy-2,3,6-trimethylbenzenesulfonamide], the inhibition at 10 µM in assay [1] stood at 93%; in assay [2], 102%.
For `COc1c(C)cc(S(=O)(=O)N(C)CCOCC(=O)N2CCn3cccc3C2c2ccc(F)c(F)c2)c(C)c1C` (stereo not shown) [Example 33, N-(2-(2-(1-(3,4-difluorophenyl)-3,4-dihydropyrrolo[1,2-a]pyrazin-2(1H)-yl)-2-oxoethoxy)ethyl)-4-methoxy-N,2,3,5-tetramethylbenzenesulfonamide], in that order: 71% and 66%.
For `CCC1c2ccc(CN(C)C)n2CCN1C(=O)COCCN(C)S(=O)(=O)c1c(C)cc(C)cc1C` (stereo not shown) [Example 145, N-(2-(2-(6-((dimethylamino)methyl)-1-ethyl-3,4-dihydropyrrolo[1,2-a]pyrazin-2(1H)-yl)-2-oxoethoxy)ethyl)-N,2,4,6-tetramethylbenzenesulfonamide], in that order: 104% and 103%.
For `COc1cc(C)c(S(=O)(=O)N(C)CCOCC(=O)N2CCn3cccc3C2c2cccs2)c(C)c1C` (stereo not shown) [Example 88, 4-methoxy-N,2,3,6-tetramethyl-N-(2-(2-oxo-2-(1-(thiophen-2-yl)-3,4-dihydropyrrolo[1,2-a]pyrazin-2(1H)-yl)ethoxy)ethyl)benzenesulfonamide], in that order: 101% and 98%.
In the case of `COc1cc(C)c(S(=O)(=O)N(C)CCOCC(=O)N2CCn3cccc3C2C)c(C)c1` (stereo not shown) [Example 53, 4-methoxy-N,2,6-trimethyl-N-(2-(2-(1-methyl-3,4-dihydropyrrolo[1,2-a]pyrazin-2(1H)-yl)-2-oxoethoxy)ethyl)benzenesulfonamide], the inhibition at 10 µM in assay [1] came out at 101%; in assay [2] it was 99%.
Turning to `Cc1cc(C)c(S(=O)(=O)N(C)CCOCC(=O)N2CCn3cccc3C2c2ccc(C)c(C)c2)c(C)c1` (stereo not shown) [Example 72, N-(2-(2-(1-(3,4-dimethylphenyl)-3,4-dihydropyrrolo[1,2-a]pyrazin-2(1H)-yl)-2-oxoethoxy)ethyl)-N,2,4,6-tetramethylbenzenesulfonamide], the inhibition at 10 µM in assay [1] was found to be 97%; in assay [2], 71%.
For `COc1cc(C)c(S(=O)(=O)N(C)CCOCC(=O)N2CCn3c(CN(C)C)ccc3C2Cc2ccccc2)c(C)c1C` (stereo not shown) [Example 151, N-(2-(2-(1-benzyl-6-((dimethylamino)methyl)-3,4-dihydropyrrolo[1,2-a]pyrazin-2(1H)-yl)-2-oxoethoxy)ethyl)-4-methoxy-N,2,3,6-tetramethylbenzene-sulfonamide], in that order: 102% and 103%.
